Target: T1, PITSLRE (Mus musculus, UniProt P24788)
T1 construct: from tissue; host or cells: mouse cortical brain lysate
T1 sequence (P24788 1-784): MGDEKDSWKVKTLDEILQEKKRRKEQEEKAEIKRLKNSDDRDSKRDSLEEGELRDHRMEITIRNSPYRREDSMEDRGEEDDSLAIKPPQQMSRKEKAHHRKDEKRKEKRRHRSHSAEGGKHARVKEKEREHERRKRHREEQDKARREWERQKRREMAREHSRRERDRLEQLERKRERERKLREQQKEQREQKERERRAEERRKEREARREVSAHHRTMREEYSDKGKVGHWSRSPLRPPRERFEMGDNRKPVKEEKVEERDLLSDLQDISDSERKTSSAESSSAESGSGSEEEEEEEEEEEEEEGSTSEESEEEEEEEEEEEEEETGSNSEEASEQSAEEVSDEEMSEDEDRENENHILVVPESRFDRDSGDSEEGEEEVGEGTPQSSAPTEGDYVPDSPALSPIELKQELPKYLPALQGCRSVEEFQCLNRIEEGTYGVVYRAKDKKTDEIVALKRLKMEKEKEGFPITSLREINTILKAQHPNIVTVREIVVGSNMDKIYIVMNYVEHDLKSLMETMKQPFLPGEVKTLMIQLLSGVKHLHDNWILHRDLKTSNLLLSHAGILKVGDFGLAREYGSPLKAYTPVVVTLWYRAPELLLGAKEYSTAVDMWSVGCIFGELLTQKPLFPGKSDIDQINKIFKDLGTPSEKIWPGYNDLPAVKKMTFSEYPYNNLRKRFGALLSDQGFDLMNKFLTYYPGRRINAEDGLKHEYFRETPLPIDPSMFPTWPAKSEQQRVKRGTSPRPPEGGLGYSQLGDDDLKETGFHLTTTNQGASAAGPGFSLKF
Experiment: Ex vivo KiNativ ATP/ADP probe competition in mouse cortical brain lysates
Assay type: binding
Settings: DLKTSNLLLSHAGILK; Lys2; ATP probe

CCC(C)(O)C#Cc1cc2c(ccn2-c2ccnc(N)n2)cn1 (stereo not shown) [BIIB-TTBK1i]
Percent Inhibition at 1μM: 63.3%

From article PMC7138307 (PLoS ONE, 2020)
